This assay addresses T1, GRK2 (Homo sapiens, UniProt P25098).
T1 sequence (P25098 1-689): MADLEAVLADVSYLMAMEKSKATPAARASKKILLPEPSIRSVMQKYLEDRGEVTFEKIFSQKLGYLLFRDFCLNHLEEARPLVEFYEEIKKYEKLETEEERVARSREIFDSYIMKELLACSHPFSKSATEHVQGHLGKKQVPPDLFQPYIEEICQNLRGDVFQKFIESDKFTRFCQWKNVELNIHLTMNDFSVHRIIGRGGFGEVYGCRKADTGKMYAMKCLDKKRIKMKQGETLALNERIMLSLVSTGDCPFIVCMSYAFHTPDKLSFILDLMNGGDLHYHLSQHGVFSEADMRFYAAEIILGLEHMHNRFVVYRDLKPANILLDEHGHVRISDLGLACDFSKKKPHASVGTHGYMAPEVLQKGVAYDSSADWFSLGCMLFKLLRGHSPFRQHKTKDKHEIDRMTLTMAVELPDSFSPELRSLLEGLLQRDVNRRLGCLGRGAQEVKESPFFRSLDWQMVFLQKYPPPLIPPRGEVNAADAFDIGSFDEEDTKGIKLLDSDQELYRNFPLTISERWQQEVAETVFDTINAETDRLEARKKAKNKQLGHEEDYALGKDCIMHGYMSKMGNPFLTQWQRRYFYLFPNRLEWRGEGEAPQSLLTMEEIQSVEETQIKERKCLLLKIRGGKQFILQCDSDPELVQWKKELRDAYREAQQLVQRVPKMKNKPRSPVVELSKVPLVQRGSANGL
As to the kind of experiment: Second ADPGlo GRK2 Inhibition Assay (Example 3). It is filed as biochemical. Conditions: ADP-Glo, 20 μM ATP; read-out: Second ADPGlo Enzymatic GRK2 Assay: IC50 (nM) (Example 3). In a few lines:
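GRK2 (2 nM) reacted with 20 μM ATP and GRKtide 1.2 mg/mL in pH 7.5 HEPES/MgCl2 buffer, 180 min at room temperature; compounds in 10-point 3.16-fold series, top final 1 μM. ADP formed detected by ADP-Glo luminescence; % inhibition against no-compound and no-enzyme controls.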
For orientation: ADP-Glo turns the ADP formed in a reaction into a luminescent signal.

For `Cc1ncsc1-c1ccc(CNC(=O)[C@@H]2C[C@@H](O)CN2C(=O)[C@@H](NC(=O)COCCOCCOCCOCCOCCOCCCCCCOc2cccc(CNC(=O)c3cccc(NCc4nnc(-c5ccncn5)n4C)c3)c2)C(C)(C)C)cc1` [Compound D100], the IC50 (commonly the midpoint of a concentration-inhibition curve) was less than 100 nM.

Consider `Cc1ncsc1-c1ccc(CNC(=O)[C@@H]2C[C@@H](O)CN2C(=O)[C@@H](NC(=O)COCCOCCCCCCOc2cccc(CNC(=O)c3cccc(NCc4nnc(-c5ccncn5)n4C)c3)c2)C(C)(C)C)cc1` [Compound D101], for which the 50% inhibitory concentration (IC50) was less than 100 nM.

Values taken from patent US20240174637A1, “DEGRADERS OF GRK2 AND USES THEREOF” (Sonata Therapeutics, Inc., priority 2021, published 2024).
